Experimental data: patent US6071884A, “Pharmaceutical compositions and therapeutic methods” (Kirin Beer Kabushiki Kaisha, priority 1992, dated 2000)

What was measured:
[1] = Life-span-increasing effect on irradiation of a lethal dose of radiation; type: in vivo, mouse (BDF1); settings: 10 mice/group, 9 Gy X-ray, 0.1 mg/kg i.v. days 0, 4, 8
Procedure: Pharmacological Test 4: Life-Span-Increasing Effect on Irradiation of a Lethal Dose of Radiation
An experiment was carried out by using 6 week old female BDF1 mice purchased from Japan SLC Co., Ltd., with 10 mice made one group.
The entire bodies of the entire body of the mice were irradiated with 9 Gy of X-rays by using a Hitachi X-ray irradiator (MBR-1520R), and the day on which the X-ray was irradiated was referred to as "day 0".

[2] = test system: blood platelets; test: Thrombocytopenia-inhibiting effect in X-ray-irradiated mice; type: in vivo, mouse (BDF1); settings: 10 days after 5 Gy X-ray; 0.1 mg/kg i.v. within 2 h; mean ± SD; vehicle per series 10.3, 6.8, 6.7; non-treatment 68.2, 96.9, 73.0
Procedure: Pharmacological Test 5: Thromboclytopenia-Inhibiting Effect
The thrombocytopenia-inhibiting effect of each sample upon an X-ray-irradiated mouser which is one of models with a decreased number of blood platelets was examined.
An experiment was carried out by using 6 week old female BDF1 mice purchased from Japan SLC Co., Ltd., with 6 mice made one group.
5 Gy of X ray was irradiated to the entire body of the mice by a Hitachi X-ray irradiator CMBR-1520R). Within 2 hours after the irradiation, each sample was administered to the caudal vein of the mice at an amount of 0.1 mg/kg.
(§1) After 10 days, blood was collected from the fundus vein of the mice, and the number of blood platelets was measured by a sequential multi-channel hemocytometer E-2500/cs (Toa Iyo Denshi Kabushiki Kaisha). The number of blood platelets of the non-treated group, that of the medium-administered group, and that of the sample-administered group are shown in Table 5.

[3] = test system: blood platelets; test: Blood-platelet-increasing effect upon normal mouse; type: in vivo, mouse (BDF1); settings: normal mice; 6 days after 0.1 mg/kg i.v.; mean ± SD; vehicle per series 58.2, 63.0, 71.1
Procedure: Pharmacological Test 6: Blood-Platelet-Increasing Effect upon Mouse
An experiment was carried out by using 6 week old female BDF1 mice purchased from Japan SLC Co., Ltd., with 5 mice made one group.
as §1, with “Each sample was administered to the caudal vein of the mice at a dose of 0.1 mg/kg. After” for “After”, “6” for “10”, “vehicle-administered” for “non-treated group, that of the medium-administered”, “6.” for “5.”

[4] = test system: marrow cells (mononuclear cell fraction); test: Proliferation-stimulating effect on marrow cell of mouse (3H-TdR uptake); type: cell-based, mouse (BALB/c); settings: percentage of control, 72 h; for activity at 0.1 µg/mL: 10^-1 μg/ml; for activity at 0.01 µg/mL: 10^-2 μg/ml; for activity at 0.001 µg/mL: 10^-3 μg/ml; for activity at 1 µg/mL: 10^0 μg/ml
Procedure: Pharmacological Test 1: Proliferation-Stimulating Effect on Marrow Cell of Mouse
Marrow cells were prepared from the thigh bone of a 7 week old female BALB/c mouse purchased from Japan SLC Co., Ltd., and a mononuclear cell fraction (MNF) obtained by fractionation using a lympholyte-M (Cedar Lane, Ontario, Canada) was used in the following experiment.
The concentration of the MNF was adjusted to 1.5×10^6 cells/ml by using 10% FCS RPMI 1640 (Nissui Pharmaceutical Co., Ltd., Tokyo, Japan) as a culture medium. 10 μl/well of a sample with a predetermined concentration and 100 μl/well of the above-prepared MNF were placed on a round-bottomed 96 well plate, and incubated under the conditions of 37° C. and 5% CO2 for 72 hours. Thereafter, 0.5 μCi/well of ^3 H-thymidine (^3 H-TDR) was added. After 8 hour incubation, the cells were harvested, and the amount of the 3H-TdR taken in the nuclei was measured by a liquid scintillation counter.

[5] = day 10, controls per series 10, 10, 10, 10, 10, 8
[6] = day 15, controls per series 8, 9, 5, 5, 7, 1
[7] = day 20, controls per series 4, 5, 1, 2, 3, 0
[8] = day 25, controls per series 3, 3, 0, 0, 2, 0
[9] = day 30, controls per series 1, 1, 0, 0, 0, 0

SMILES | Number of Surviving Mice [1, 5] [mice] | Number of Surviving Mice [1, 6] [mice] | Number of Surviving Mice [1, 7] [mice] | Number of Surviving Mice [1, 8] [mice] | Number of Surviving Mice [1, 9] [mice] | Number of Surviving Mice ([1]; day 35, all controls 0) [mice] | Number of Surviving Mice ([1]; day 40, all controls 0) [mice] | Number of Blood Platelets [2] | Number of Blood Platelets [3] | activity at 0.1 µg/mL [4] [%] | activity at 0.01 µg/mL [4] [%] | activity at 0.001 µg/mL [4] [%] | activity at 1 µg/mL [4] [%]
CCCCCCCCCCCCCCCCCCCCCCCC(=O)N[C@@H](CO[C@H]1O[C@H](CO)[C@H](O)[C@H](O)[C@H]1O)[C@H](O)CCCCCCCCCCCCCCC [Compound 1, (2S,3R)-1-(α-D-galactopyranosyloxy)-2-tetracosanoylamino-3-octadecanol] | 10 | 10 | 10 | 9 | 9 | 9 | 9 | 25.4 ± 6.8 × 10^4 /μl | 112.2 ± 6.5 × 10^4 /μl | 465 | 263 | 134 | –
CCCCCCCCCCCCCCCCCCCCCC(=O)N[C@@H](CO[C@H]1O[C@H](CO)[C@H](O)[C@H](O)[C@H]1O)[C@H](O)CCCCCCCCCCCCCCC [Compound 2, (2S,3R)-2-docosanoylamino-1-(α-D-galactopyranosyloxy)-3-octadecanol] | 10 | 10 | 9 | 9 | 9 | 9 | 8 | 21.5 ± 5.4 × 10^4 /μl | 96.3 ± 7.3 × 10^4 /μl | 295 | 92 | 123 | 915
CCCCCCCCCCCCCCCCCCCC(=O)N[C@@H](CO[C@H]1O[C@H](CO)[C@H](O)[C@H](O)[C@H]1O)[C@H](O)CCCCCCCCCCCCCCC [Compound 3, (2S,3R)-1-(α-D-galactopyranosyloxy)-2-icosanoylamino-3-octadecanol] | 10 | 9 | 8 | 8 | 8 | 8 | 8 | 20.6 ± 4.5 × 10^4 /μl | 102.0 ± 10.8 × 10^4 /μl | 234 | 87 | 84 | –
CCCCCCCCCCCCCCCCCC(=O)N[C@@H](CO[C@H]1O[C@H](CO)[C@H](O)[C@H](O)[C@H]1O)[C@H](O)CCCCCCCCCCCCCCC [Compound 4, (2S,3R)-1-(α-D-galactopyranosyloxy)-2-octadecanoylamino-3-octadecanol] | 10 | 10 | 8 | 7 | 5 | 5 | 5 | 14.3 ± 4.7 × 10^4 /μl | 83.1 ± 6.5 × 10^4 /μl | 297 | 75 | 151 | –
CCCCCCCCCCCCCCC[C@@H](O)[C@H](CO[C@H]1O[C@H](CO)[C@H](O)[C@H](O)[C@H]1O)NC(=O)CCCCCCCCC [Compound 6, (2S,3R)-2-decanoylamino-1-(α-D-galactopyranosyloxy)-3-octadecanol] | 9 | 6 | 2 | 2 | 2 | 2 | 2 | 15.4 ± 3.2 × 10^4 /μl | 93.0 ± 12.1 × 10^4 /μl | 391 | 196 | 71 | –
CCCCCCCCCCCCCCC[C@@H](O)[C@H](CO[C@H]1O[C@H](CO)[C@H](O)[C@H](O)[C@H]1O)NC(=O)CCCCCCC [Compound 7, (2S,3R)-1-(α-D-galactopyranosyloxy)-2-octanoylamino-3-octadecanol] | 10 | 8 | 6 | 5 | 5 | 5 | 5 | 12.3 ± 4.0 × 10^4 /μl | 76.0 ± 5.1 × 10^4 /μl | 631 | 351 | 313 | 972
CCCCCCCCCCCCCCC[C@@H](O)[C@H](CO[C@H]1O[C@H](CO)[C@H](O)[C@H](O)[C@H]1O)NC(C)=O [Compound 8, (2S,3R)-2-acetamino-1-(α-D-galactopyranosyloxy)-3-octadecanol] | 10 | 5 | 1 | 1 | 1 | 1 | 1 | 8.1 ± 2.6 × 10^4 /μl | 96.6 ± 3.2 × 10^4 /μl | 232 | 81 | 129 | –
CCCCCCCCCCCCCCCCCCCCCCCC(=O)N[C@@H](CO[C@H]1O[C@H](CO)[C@H](O)[C@H](O)[C@H]1O)[C@H](O)CCCCCCCCCCC [Compound 9, (2S,3R)-1-(α-D-galactopyranosyloxy)-2-tetracosanoylamino-3-tetradecanol] | 10 | 8 | 6 | 6 | 6 | 6 | 6 | 17.6 ± 3.4 × 10^4 /μl | 100.5 ± 8.3 × 10^4 /μl | 547 | 103 | 134 | –
CCCCCCCCCCCCCC(=O)N[C@@H](CO[C@H]1O[C@H](CO)[C@H](O)[C@H](O)[C@H]1O)[C@H](O)CCCCCCCCCCCCC [Compound 10, (2S,3R)-1-(α-D-galactopyranosyloxy)-2-tetradecanoylamino-3-hexadecanol] | 10 | 8 | 7 | 7 | 7 | 7 | 7 | 19.6 ± 4.0 × 10^4 /μl | 87.2 ± 4.0 × 10^4 /μl | 356 | 90 | 77 | –
